Measured values as given in patent publication US20220323406A1, “METHODS AND COMPOSITIONS FOR DIFFERENTIATING STEM CELLS” (Massachusetts Institute of Technology, priority 2019, published 2022).

Assays:
[1] = system: ENR+CD organoids; assay: Primary screen: ATP (CellTiter-Glo 3D, CTG) cell number/viability, 2.5-D 384-well ENR+CD organoids; conditions: primary screen; for Z.CTG: standard z score;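 on all read-outs here: compounds given at plating and again on day 3 over a 6-day differentiation from ENR+CV stem-cell-enriched precursors, ATP measured on day 6, plate median as control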
[2] = system: ENR+CD organoids (ISC to Paneth cell differentiation); assay: Primary screen: basal (non-stimulated) lysozyme secretion LYZ.NS, 2.5-D 384-well ENR+CD organoid differentiation; format: cell-based, mouse
Description: (§1) High-throughput screening.

[3] = system: ENR+CD organoids (ISC to Paneth cell differentiation); assay: Primary screen: CCh-stimulated lysozyme secretion LYZ.S, 2.5-D 384-well ENR+CD organoid differentiation; format: cell-based, mouse; conditions: primary screen
Description: as §1

[4] = primary screen, standard z score, dose 0.08 uM
[5] = primary screen, standard z score, dose 0.40 uM
[6] = primary screen, standard z score, dose 2.00 uM
[7] = primary screen, standard z score, dose 10.00 uM
[8] = dose 0.08 uM, FC relative to plate median
[9] = dose 0.40 uM, FC relative to plate median
[10] = dose 2.00 uM, FC relative to plate median
[11] = dose 10.00 uM, FC relative to plate median

| Compound | Dose.FC.CTG ([1]; dose 0.08 uM) | Dose.FC.CTG ([1]; dose 0.40 uM) | Dose.FC.CTG ([1]; dose 2.00 uM) | Dose.FC.CTG ([1]; dose 10.00 uM) | Dose.FC.LYZ.NS ([2]; primary screen, dose 0.08 uM) | Dose.FC.LYZ.NS ([2]; primary screen, dose 0.40 uM) | Dose.FC.LYZ.NS ([2]; primary screen, dose 2.00 uM) | Dose.FC.LYZ.NS ([2]; primary screen, dose 10.00 uM) | Z.LYZ.NS [2, 4] | Z.LYZ.NS [2, 5] | Z.LYZ.NS [2, 6] | Z.LYZ.NS [2, 7] | Dose.FC.LYZ.S ([3]; dose 0.08 uM) | Dose.FC.LYZ.S ([3]; dose 0.40 uM) | Dose.FC.LYZ.S ([3]; dose 2.00 uM) | Dose.FC.LYZ.S ([3]; dose 10.00 uM) | Z.LYZ.NS (standard z score) ([2]; primary screen, dose 0.08 uM) | Z.LYZ.NS (standard z score) ([2]; primary screen, dose 0.40 uM) | Z.LYZ.NS (standard z score) ([2]; primary screen, dose 2.00 uM) | Z.LYZ.NS (standard z score) ([2]; primary screen, dose 10.00 uM) | also measured |
| --- | --- | --- | --- | --- | --- | --- | --- | --- | --- | --- | --- | --- | --- | --- | --- | --- | --- | --- | --- | --- | --- |
| CCOc1nc2cccc(C(=O)O)c2n1Cc1ccc(-c2ccccc2-c2nnn[nH]2)cc1 [Candesartan] | −0.003 log2 fold change | −0.125 log2 fold change | −0.198 log2 fold change | −0.253 log2 fold change | 0.013 log2 fold change | −0.015 log2 fold change | 0.007 log2 fold change | −0.051 log2 fold change | 0.113 | −0.128 | 0.065 | −0.442 | −0.015 log2 fold change | −0.032 log2 fold change | −0.092 log2 fold change | −0.075 log2 fold change | – | – | – | – | – |
| O=c1oc2cc(O)ccc2s1 [Tioxolone] | 0.246 log2 fold change | 0.089 log2 fold change | 0.044 log2 fold change | 0.328 log2 fold change | 0.099 log2 fold change | 0.012 log2 fold change | 0.053 log2 fold change | 0.023 log2 fold change | – | – | – | – | 0.149 log2 fold change | 0.000 log2 fold change | 0.023 log2 fold change | 0.028 log2 fold change | 0.864 | 0.101 | 0.462 | 0.202 | – |
| HA14-1 | – | – | – | – | – | – | – | – | – | – | – | – | – | – | – | – | 1.052 | 1.195 | 1.345 | 1.151 | Dose.FC.CTG (log2 fold change) ([1]; dose 0.08 uM): 0.534; Z.CTG (standard z score) ([1]; dose 0.08 uM): 1.276; Dose.FC.CTG (log2 fold change) ([1]; dose 0.40 uM): 0.526; Z.CTG (standard z score) ([1]; dose 0.40 uM): 1.255; Dose.FC.CTG (log2 fold change) ([1]; dose 2.00 uM): 0.554; Z.CTG (standard z score) ([1]; dose 2.00 uM): 1.323; Dose.FC.CTG (log2 fold change) ([1]; dose 10.00 uM): 0.388; Z.CTG (standard z score) ([1]; dose 10.00 uM): 0.926; Dose.FC.LYZ.NS (log2 fold change) ([2]; primary screen, dose 0.08 uM): 0.121; Dose.FC.LYZ.NS (log2 fold change) ([2]; primary screen, dose 0.40 uM): 0.137; Dose.FC.LYZ.NS (log2 fold change) ([2]; primary screen, dose 2.00 uM): 0.154; Dose.FC.LYZ.NS (log2 fold change) ([2]; primary screen, dose 10.00 uM): 0.132; Dose.FC.LYZ.S (log2 fold change) ([3]; dose 0.08 uM): 0.190; Dose.FC.LYZ.S (log2 fold change) ([3]; dose 0.40 uM): 0.316; Dose.FC.LYZ.S (log2 fold change) ([3]; dose 2.00 uM): 0.170; Dose.FC.LYZ.S (log2 fold change) ([3]; dose 10.00 uM): 0.149 |
| Nc1cccc(-c2cc3c(Oc4cccc(O)c4)ncnc3[nH]2)c1 [TWS119] | 0.328 log2 fold change | 0.333 log2 fold change | 0.071 log2 fold change | −1.200 log2 fold change | 0.094 log2 fold change | 0.038 log2 fold change | 0.035 log2 fold change | −0.233 log2 fold change | – | – | – | – | 0.207 log2 fold change | 0.142 log2 fold change | 0.044 log2 fold change | −0.283 log2 fold change | 0.820 | 0.327 | 0.304 | −2.027 | Z.CTG (standard z score) ([1]; dose 0.08 uM): 0.784; Z.CTG (standard z score) ([1]; dose 0.40 uM): 0.796; Z.CTG (standard z score) ([1]; dose 2.00 uM): 0.169; Z.CTG (standard z score) ([1]; dose 10.00 uM): −2.866 |
| C[C@H]1COC2=C1C(=O)C(=O)c1c2ccc2c1CCCC2(C)C [Cryptotanshinone] | 0.199 log2 fold change | −0.027 log2 fold change | −0.184 log2 fold change | −0.541 log2 fold change | 0.143 log2 fold change | −0.120 log2 fold change | −0.182 log2 fold change | −0.288 log2 fold change | 1.243 | −1.047 | −1.585 | −2.506 | 0.156 log2 fold change | −0.105 log2 fold change | −0.288 log2 fold change | −0.432 log2 fold change | – | – | – | – | – |
| CC(C)(C)c1cnc(CSc2cnc(NC(=O)C3CCNCC3)s2)o1 [SNS-032 (BMS-387032)] | – | – | – | – | – | – | – | – | – | – | – | – | – | – | – | – | – | – | – | – | Dose.FC.CTG [1, 8]: −0.075 log2 fold change; Z.CTG ([1]; dose 0.08 uM): −0.180; Dose.FC.CTG [1, 9]: −0.083 log2 fold change; Z.CTG ([1]; dose 0.40 uM): −0.198; Dose.FC.CTG [1, 10]: −0.915 log2 fold change; Z.CTG ([1]; dose 2.00 uM): −2.186; Dose.FC.CTG [1, 11]: −1.009 log2 fold change; Z.CTG ([1]; dose 10.00 uM): −2.411; Dose.FC.LYZ.NS ([2]; primary screen, dose 0.08 uM, FC relative to plate median): 0.049 log2 fold change; Z.LYZ.NS ([2]; primary screen, dose 0.08 uM, standard z score): 0.428; Dose.FC.LYZ.NS ([2]; primary screen, dose 0.40 uM, FC relative to plate median): −0.143 log2 fold change; Z.LYZ.NS ([2]; primary screen, dose 0.40 uM, standard z score): −1.241; Dose.FC.LYZ.NS ([2]; primary screen, dose 2.00 uM, FC relative to plate median): −0.276 log2 fold change; Z.LYZ.NS ([2]; primary screen, dose 2.00 uM, standard z score): −2.399; Dose.FC.LYZ.NS ([2]; primary screen, dose 10.00 uM, FC relative to plate median): −0.254 log2 fold change; Z.LYZ.NS ([2]; primary screen, dose 10.00 uM, standard z score): −2.214; Dose.FC.LYZ.S [3, 8]: 0.070 log2 fold change; Dose.FC.LYZ.S [3, 9]: −0.206 log2 fold change; Dose.FC.LYZ.S [3, 10]: −0.301 log2 fold change; Dose.FC.LYZ.S [3, 11]: −0.361 log2 fold change |
